Our source for the IC50 values is US20250186456A1, “PYRIMIDINE-FUSED CYCLIC COMPOUND AND PREPARATION METHOD AND USE THEREOF” (Genfleet Therapeutics (Shanghai) Inc., priority 2021, published 2025).

In general, IC50 refers to the concentration at which inhibition is half-maximal.

Holding throughout (assay type): cell-based, human
Assay [1] has as its system p-ERK in AGS cells (KRAS G12D mutation). The assay is described as follows: Cell p-ERK assay (HTRF, Advance ERK phospho-T202/Y204 kit). As to conditions: AGS cells, 3 hours incubation with compound, HTRF, read-out: AGS p-ERK IC50. In short, it runs like this:
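AGS cells (endogenous KRAS G12D) seeded at ~20000 cells/well overnight, then treated 3 h with 3.16-fold compound dilutions, 0.1% DMSO final. Lysates assayed for phospho-T202/Y204 ERK by HTRF after 4 h antibody incubation; inhibition vs DMSO and blank, IC50 by four-parameter fit.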
In general terms: Time-resolved FRET reads energy transfer from a long-lived donor to a nearby acceptor.

For assay [2], the system named is AGS cells (KRAS G12D). The assay can be described thus: Cell proliferation inhibition assay, 3D, CellTiter-Glo 3D, AGS. The conditions noted are these: AGS 3D sphere model, 5 days incubation. In short, it runs like this:
(§1)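 Spheroids (800 AsPC-1 or 400 AGS cells/well; RPMI-1640 or F-12K with 10% FBS) formed overnight, then were dosed on day 2 with a 3.16-fold series at 0.1% DMSO. After 5 days, viability was read by CellTiter-Glo 3D luminescence, and IC50 came from four-parameter fits of inhibition versus DMSO control and medium blank.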
On the technique in general: Cellular ATP, detected with luciferase, serves as a proxy for viable cell number.

For assay [3], the system named is AsPC-1 cells (KRAS G12D mutation). The assay is described as follows: Cell proliferation inhibition assay, 3D, CellTiter-Glo 3D, AsPC-1. As to conditions: AsPC-1 3D sphere model, 5 days incubation. The essentials: as §1

Where two headings read alike, the source gives them in different places.

As to `C#Cc1cccc2cc(N)cc(-c3nc4c5c(nc(OCC6(CN7CC[C@@H](F)C7)CC6)nc5c3F)N3C[C@H]5CC[C@H](N5)[C@H]3[C@H](C)O4)c12` [Example Z710, 5-Ethynyl-4-((5S,5aS,6S,9R)-1-Fluoro-12-((1-(((R)-3-Fluoropyrrolidin-1-Yl)Methyl)Cyclopropyl)Methoxy)-5-Methyl-5a,6,7,8,9,10-Hexahydro-5H-4-Oxa-3,10a,11,13,14-Pentaaza-6,9-Methanonaphtho[1,8-Ab]Heptalen-2-Yl) Naphthalen-2-Amine], the IC50 in assay [1] (Homo sapiens) stood at 0.34 nM; in assay [2] (Homo sapiens, 120 h), 4.26 nM; in assay [3] (Homo sapiens, ASPC1, 120 h) it was 3.72 nM.
On the same counts, the results for `CCc1cccc2c(F)c(N)cc(-c3nc4c5c(nc(OCC67CCCN6CC(F)(F)C7)nc5c3F)N3C[C@H]5CC[C@H](N5)[C@H]3[C@H](C)O4)c12` (stereo partly drawn) [Example Z729, 4-((5S,5aS,6S,9R)-12-((2,2-difluorotetrahydro-1H-pyrrolizin-7a (5H)-yl)methoxy)-1-fluoro-5-methyl-5a,6,7,8,9,10-hexahydro-5H-4-oxa-3,10a, 11, 13, 14-pentaaza-6,9-methanonaphtho[1,8-ab]heptalene-2-yl)-5-ethyl-1-fluoronaphthalen-2-amine] are 212 nM, 584 nM and 757 nM.
Turning to `C#Cc1c(F)ccc2cccc(-c3nc4c5c(nc(OCC67CCCN6[C@H]6C[C@H]6C7)nc5c3F)N3C[C@H]5CC[C@H](N5)[C@H]3[C@H](C)O4)c12` (stereo partly drawn) [Example Z625, (5S,5aS,6S,9R)-2-(8-Ethynyl-7-Fluoronaphthalen-1-Yl)-1-Fluoro-12-(((1aS,6aS)-Hexahydrocyclopropa[b]Pyrrolizin-Sa (3H)-Yl)Methoxy)-5-Methyl-5a,6,7,8,9,10-Hexahydro-5H-4-Oxa-3,10a,11,13,14-Pentaaza-6,9-Methanonaphtho[1,8-Ab]Heptalene], the IC50 in assay [1] was 81.9 nM; in assay [2], 107 nM; in assay [3], 405 nM.
With `C#Cc1c(F)ccc2cccc(-c3nc4c5c(nc(OC[C@@]67CCCN6CC(=C)C7)nc5c3F)N3C[C@H]5CC[C@H](N5)[C@H]3[C@H](C)O4)c12` [Example Z637, (5S,5aS,6S,9R)-2-(8-ethynyl-7-fluoronaphthalen-1-yl)-1-fluoro-5-methyl-12-(((S)-2-methylenetetrahydro-1H-pyrrolizin-7a (5H)-yl)methoxy)-5a,6,7,8,9,10-hexahydro-5H-4-oxa-3,10a,11,13,14-pentaaza-6,9-methanonaphtho[1,8-ab]heptalene], the IC50 in assay [1] (Homo sapiens) was 48.8 nM; in assay [2] (Homo sapiens, 120 h) it was 67.6 nM; in assay [3] (Homo sapiens, ASPC1, 120 h) it was 112 nM.
Regarding `C#Cc1c(F)ccc2cccc(-c3nc4c5c(nc(OCC67CCCN6C6(CC6)CC7)nc5c3F)N3C[C@H]5CC[C@H](N5)[C@H]3[C@H](C)O4)c12` (stereo partly drawn) [Example Z631, (5S,5aS,6S,9R)-2-(8-Ethynyl-7-Fluoronaphthalen-1-Yl)-1-Fluoro-5-Methyl-12-((Tetrahydrospiro[Cyclopropane-1,3′-Pyrrolizin]-7a′ (5′H)-Yl)Methoxy)-5a,6,7,8,9,10-Hexahydro-5H-4-Oxa-3,10a,11,13,14-Pentaaza-6,9-Methanonaphtho[1,8-Ab]Heptalene], the IC50 came out at 91.9 nM in assay [1] (Homo sapiens); 201 nM in assay [2] (Homo sapiens, 120 h); 254 nM in assay [3] (Homo sapiens, ASPC1, 120 h).
For the compound `C#Cc1c(F)ccc2cc(O)cc(-c3nc4c5c(nc(OCC67CCCN6CC(F)(F)C7)nc5c3F)N3C[C@H]5CC[C@H](N5)[C@H]3[C@H](C)O4)c12` (stereo partly drawn) [Example Z723, 4-((5S,5aS,6S,9R)-12-((2,2-difluorotetrahydro-1H-pyrrolizin-7a (5H)-yl)methoxy)-1-fluoro-5-methyl-5a,6,7,8,9,10-hexahydro-5H-4-oxa-3,10a, 11,13,14-pentaaza-6,9-methanonaphtho[1,8-ab]heptalene-2-yl)-5-ethynyl-6-fluoronaphthalen-2-ol], the IC50 in assay [1] (Homo sapiens) is 6.96 nM; in assay [2] (Homo sapiens, 120 h), 15.1 nM; in assay [3] (Homo sapiens, ASPC1, 120 h), 55.4 nM.
Consider `C#Cc1c(F)ccc2cccc(-c3nc4c5c(nc(OCC67CC(=C)CN6C[C@H](F)C7)nc5c3F)N3CC5CCC(N5)C3C(CF)O4)c12` (stereo partly drawn) [Example Z679, 2-(8-Ethynyl-7-Fluoronaphthalen-1-Yl)-1-Fluoro-12-(((2R)-2-Fluoro-6-Methylenetetrahydro-1H-Pyrrolizin-7a (5H)-Yl)Methoxy)-5-(Fluoromethyl)-5a,6,7,8,9,10-Hexahydro-5H-4-Oxa-3.10a,11,13,14-Pentaaza-6,9-Methanonaphtho[1,8-Ab]Heptalene], for which the values for the IC50 in assay [1], in assay [2] and in assay [3] were 117 nM, 393 nM and 352 nM, respectively.
Take `C#Cc1c(F)ccc2cc(O)cc(-c3nc4c5c(nc(OCC67CC(=C)CN6CC(=C)C7)nc5c3F)N3C[C@H]5CC[C@H](N5)[C@H]3[C@H](C)O4)c12` [Example Z553, 4-((5S,5aS,6S,9R)-12-((2,6-dimethylenetetrahydro-1H-pyrrolizin-7a (5H)-yl)methoxy)-1-fluoro-5-methyl-5a,6,7,8,9,10-hexahydro-5H-4-oxa-3,10a, 11,13,14-pentaaza-6,9-methanonaphtho[1,8-ab]heptalen-2-yl)-5-ethynyl-6-fluoronaphthalen-2-ol]: the IC50 is 0.48 nM in assay [1] (Homo sapiens); 0.53 nM in assay [2] (Homo sapiens, 120 h); 9.13 nM in assay [3] (Homo sapiens, ASPC1, 120 h).
The corresponding values for `C#Cc1c(F)ccc2cccc(-c3nc4c5c(nc(OCC67CC(=C)CN6C[C@H]6C[C@H]67)nc5c3F)N3C[C@H]5CC[C@H](N5)[C@H]3[C@H](C)O4)c12` (stereo partly drawn) [Example Z606, (5S,5aS,6S,9R)-2-(8-ethynyl-7-fluoronaphthalen-1-yl)-1-fluoro-5-methyl-12-(((1aS,6bR)-5-methylenehexahydrocyclopropa[a]pyrrolizin-6a (4H)-yl)methoxy)-5a,6,7,8,9,10-hexahydro-5H-4-oxa-3,10a,11,13,14-pentaaza-6,9-methanonaphtho[1,8-ab]heptalene] are 874 nM, 908 nM and 802 nM.
The corresponding values for `C#Cc1cccc2cc(O)cc(-c3nc4c5c(nc(OC[C@@]67CCCN6C[C@H](F)C7)nc5c3F)N3C[C@H]5CC[C@H](N5)[C@H]3[C@H](C)O4)c12` [Example Z384, 5-ethynyl-4-((5S,5aS,6S,9R)-1-fluoro-12-(((2R,7aS)-2-fluorotetrahydro-1H-pyrrolizin-7a (5H)-yl)methoxy)-5-methyl-5a,6,7,8,9,10-hexahydro-5H-4-oxa-3,10a, 11,13,14-pentaaza-6,9-methanonaphtho[1,8-ab]heptalen-2-yl) naphthalen-2-ol] are 0.65 nM, 1.5 nM and 7.34 nM.
Consider `C#Cc1c(F)ccc2cccc(-c3nc4c5c(nc(OCC67CCCN6CCC7=C)nc5c3F)N3C[C@H]5CC[C@H](N5)[C@H]3[C@H](C)O4)c12` (stereo partly drawn) [Example Z600, (5S,5aS,6S,9R)-2-(8-ethynyl-7-fluoronaphthalen-1-yl)-1-fluoro-5-methyl-12-((1-methylenetetrahydro-1H-pyrrolizin-7a (5H)-yl)methoxy)-5a,6,7,8,9,10-hexahydro-5H-4-oxa-3,10a, 11, 13, 14-pentaaza-6,9-methanonaphtho[1,8-ab]heptalene], for which the IC50 in assay [1] (Homo sapiens) was determined as 18.3 nM; in assay [2] (Homo sapiens, 120 h) it was 15.3 nM; in assay [3] (Homo sapiens, ASPC1, 120 h), 64.8 nM.
In the case of `C#Cc1c(F)ccc2cc(N)cc(-c3nc4c5c(nc(OCC67CCCN6CC(F)(F)C7)nc5c3F)N3C[C@H]5CC[C@H](N5)[C@H]3[C@H](C)O4)c12` (stereo partly drawn) [Example Z722, 4-((5S,5aS,6S,9R)-12-((2,2-difluorotetrahydro-1H-pyrrolizin-7a (5H)-yl)methoxy)-1-fluoro-5-methyl-5a,6,7,8,9,10-hexahydro-5H-4-oxa-3,10a, 11,13,14-pentaaza-6,9-methanonaphtho[1,8-ab]heptalene-2-yl)-5-ethynyl-6-fluoronaphthalen-2-amine], the IC50 in assay [1] (Homo sapiens) stood at 7.22 nM; in assay [2] (Homo sapiens, 120 h), 12.8 nM; in assay [3] (Homo sapiens, ASPC1, 120 h), 9.29 nM.
As for `C#Cc1cccc2cc(N)cc(-c3nc4c5c(nc(OC[C@@H]6C[C@@H](F)CN6C)nc5c3F)N3C[C@H]5CC[C@H](N5)[C@H]3[C@H](C)O4)c12` [Example Z732, 5-ethynyl-4-((5S,5aS,6S,9R)-1-fluoro-12-(((28,4R)-4-fluoro-1-methylpyrrolidin-2-yl)methoxy)-5-methyl-5a,6,7,8,9,10-hexahydro-5H-4-oxa-3,10a, 11, 13, 14-pentaaza-6,9-methanonaphtho[1,8-ab]heptalene-2-yl) naphthalen-2-amine], the IC50 in assay [1] is 2.88 nM; in assay [2] it was 10.8 nM; in assay [3] it was 11.8 nM.
As for `C#Cc1c(F)ccc2cccc(-c3nc4c5c(nc(OCC(=C)CN6CCOCC6)nc5c3F)N3C[C@H]5CC[C@H](N5)[C@H]3[C@H](C)O4)c12` [Example Z687, (5S,5aS,6S,9R)-2-(8-ethynyl-7-fluoronaphthalen-1-yl)-1-fluoro-5-methyl-12-((2-(morpholinomethyl)allyl)oxy)-5a,6,7,8,9,10-hexahydro-5H-4-oxa-3,10a,11,13,14-pentaaza-6,9-methanonaphtho[1,8-ab]heptalene], the IC50 in assay [1] (Homo sapiens) was 193 nM; in assay [2] (Homo sapiens, 120 h) it was 392 nM; in assay [3] (Homo sapiens, ASPC1, 120 h) it was 513 nM.
